Test results published in patent publication US5658939A, “Methionine sulfone and S-substituted cysteine sulfone derivatives as enzyme inhibitors” (Corvas International Inc., priority 1995, dated 1997).
Like-named read-outs stand apart in the source and are kept apart here.

Key:
Purified human plasmin = Purified human plasmin (Homo sapiens, UniProt P00747); assay: in vitro plasmin inhibition assay, IC50 (chromogenic substrate S-2251); format: biochemical; settings: Table 1; 1.0 nM plasmin, 300 μM substrate, pH 7.5, 30 minute incubation
Procedure: (§1) The ability of the compounds of the present invention to act as inhibitors of thrombin and plasmin catalytic activity was assessed by determining the concentration which inhibited enzyme activity by 50%, (IC50), using the purified human enzymes.
(§2) The buffer used for all assays was HBSA (10 mM HEPES, pH 7.5, 150 mM sodium chloride, 0.1% bovine serum albumin).
(§3) The assay for IC50 determinations was conducted by combining in appropriate wells of a Corning microtiter plate, 50 microliters of HBSA, 50 microliters of the test compound at a specified concentration (covering a broad concentration range) diluted in HBSA (or HBSA alone for Vo (uninhibited velocity) measurement), and 50 microliters of the enzyme diluted in HBSA. Following a 30 minute incubation at ambient temperature, 50 microliters of the substrate at the concentrations specified below, was added to the wells yielding a final total volume of 200 microliters. The initial velocity of chromogenic substrate hydrolysis was measured by the change in absorbance at 405 nm using a Thermo Max® Kinetic Microplate Reader over a 5 minute period in which less than 5% of the added substrate was utilized. The concentration of added inhibitor which caused a 50% decrease in the initial rate of hydrolysis was defined as the IC50 value.
Plasmin catalytic activity was determined using the chromogenic substrate, S-2251 [D-valyl-L-leucyl-L-lysine-p-nirtoanilide dihydrochloride], which was obtained from Kabi Diagnostica. The substrate was made up in deionized water followed by dilution in HBSA prior to the assay in which the final concentration was 300 μM (about 5-times Km). Purified human plasmin was obtained from Enzyme Research Laboratories, Inc. The enzyme was diluted into HBSA prior to assay in which the final concentration was 1.0 nM.

[1] = target: Purified human alpha-thrombin (Homo sapiens, UniProt P00734); assay: in vitro thrombin inhibition assay, IC50 (chromogenic substrate Pefachrome t-PA); format: biochemical; settings: Table 1; 0.25 nM thrombin, 300 μM substrate, pH 7.5, 30 minute incubation
Procedure: as §1, §2, §3
Thrombin catalytic activity was determined using the chromogenic substrate Pefachrome t-PA (CH3 SO2 -D-hexahydrotyrosine-glycyl-L-arginine-p-nitroaniline, obtained from Pentapharm Ltd.). The substrate was made up in deionized water followed by dilution in HBSA prior to the assay in which the final concentration was 300 μM (about 10-times Km). Purified human alpha-thrombin was obtained from Enzyme Research Laboratories, Inc. The enzyme was diluted into HBSA prior to the assay in which the final concentration was 0.25 nM.

rat carotid artery = assay: Rat model of FeCl3-induced platelet-dependent arterial thrombosis; format: in vivo, rat (Male Harlan Sprague Dawley); settings: for ED50: read-out: ED50 for thrombus prevention
human alpha-thrombin = human alpha-thrombin (Homo sapiens, UniProt P00734); assay: Determination of inhibition constant Ki for thrombin (steady state velocities, Pefachrome t-PA); format: biochemical
Procedure: The ability of the compounds of the present invention to act as inhibitors of thrombin catalytic activity was assessed by determining their inhibition constant, Ki.
Enzyme activity was determined using the chromogenic substrate Pefachrome t-PA (CH3 SO2 -D-hexahydrotyrosine-glycyl-L-arginine-p-nitroaniline), obtained from Pentapharm Ltd. The substrate was reconstituted in deionized water prior to use. Purified human alpha-thrombin (3000U/mg specific activity) was obtained from Enzyme Research Laboratories, Inc. The buffer used for all assays was HBSA (10 mM HEPES, pH 7.5, 150 mM sodium chloride, 0.1% bovine serum albumin).
Velocities of chromogenic substrate hydrolysis which occurred over 40 minutes was measured by the change in absorbance at 405 nm using a Thermo Max® Kinetic Microplate Reader.
Ki values were determined for test compounds using the relationships developed by Williams and Morrison, Methods in Enzymology, 63:437 (1979) using steady state velocities (Vs) measured over 40 minutes. The extent of substrate hydrolysis was less than 5% over the course of this assay.
Table 2 below gives the Ki values for selected test compounds.

rat plasma = assay: activated partial thromboplastin time (APTT) in citrated rat plasma; format: biochemical; settings: control clotting time 19.75 sec
Procedure: (§4) The ex Vivo anticoagulant effects of BzlSO2 -Met[S(O2)]-Pro-Arg-al was determined by measuring the prolongation of the activated partial thromboplastin time (APTT) over a broad concentration range of the added inhibitor, using pooled normal human and rat plasma. Fresh frozen citrated pooled normal human plasma was obtained from George King Biomedical, Overland Park, Kans. Pooled normal rat plasma was prepared from citrated whole blood collected from anesthetized rats using standard procedures. The plasma was flash frozen and stored at -80° C. until use. Measurements APTT was made using the Coag-A-Mate RA4 automated coagulometer (General Diagnostics, Organon Technica, Oklahoma City, Okla.) using the Automated APTT reagent (Organon Technica, Durham, N.C.) as the initiator of clotting according to the manufacturer's instructions.
(§5) The assay was conducted by making a series of dilutions of the test compounds in rapidly thawed plasma followed by adding 200 microliters to the wells of the assay carousel.
(§6) The elevation in APTT due to increasing concentration of compound is presented relative to the control clotting time for rat (19.75 sec) and human (28.3 sec) plasma which is set to a value of 1.0.

human plasma = assay: activated partial thromboplastin time (APTT) in citrated human plasma; format: biochemical; settings: control clotting time 28.3 sec
Procedure: as §4, §5, §6

[2] = Table 2, human alpha-thrombin 0.5 nM, steady state velocities over 40 minutes, read-out: Inhibitor Constants (Ki)

Purified human plasmin, sequence (P00747 581-810 limits assumed): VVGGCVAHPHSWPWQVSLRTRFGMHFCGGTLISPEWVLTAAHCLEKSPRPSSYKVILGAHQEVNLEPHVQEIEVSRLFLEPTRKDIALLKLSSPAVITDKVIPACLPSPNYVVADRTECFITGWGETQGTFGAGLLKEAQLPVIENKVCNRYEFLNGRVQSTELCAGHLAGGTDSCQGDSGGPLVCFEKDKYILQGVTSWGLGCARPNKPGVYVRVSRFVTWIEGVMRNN
Purified human plasmin, sequence (P00747 97-580 limits assumed): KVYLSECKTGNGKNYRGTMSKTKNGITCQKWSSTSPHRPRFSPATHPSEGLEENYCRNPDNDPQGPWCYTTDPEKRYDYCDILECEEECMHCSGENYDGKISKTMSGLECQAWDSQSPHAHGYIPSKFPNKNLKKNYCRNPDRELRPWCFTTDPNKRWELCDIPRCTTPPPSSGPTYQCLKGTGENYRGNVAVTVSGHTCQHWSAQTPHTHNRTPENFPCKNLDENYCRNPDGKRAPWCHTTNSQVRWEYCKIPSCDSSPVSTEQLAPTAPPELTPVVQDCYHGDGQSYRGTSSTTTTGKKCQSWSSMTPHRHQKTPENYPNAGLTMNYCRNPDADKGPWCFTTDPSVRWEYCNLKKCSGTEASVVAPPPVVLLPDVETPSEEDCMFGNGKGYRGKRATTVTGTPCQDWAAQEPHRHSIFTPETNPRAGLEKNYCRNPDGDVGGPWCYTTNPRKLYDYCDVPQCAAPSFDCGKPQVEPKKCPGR

IC50 (Purified human plasmin)	IC50 [1]	Structure (SMILES)	further results
110 nM	3 nM	CCCCS(=O)(=O)N[C@@H](CS(=O)(=O)CC(=O)O)C(=O)N1CCC[C@H]1C(=O)N[C@H](C=O)CCCNC(=N)N	
490 nM	13 nM	N=C(N)NCCC[C@@H](C=O)NC(=O)[C@@H]1CCCN1C(=O)[C@H](CSCC(=O)O)NS(=O)(=O)Cc1ccccc1	
200 nM	0.81 nM	COC(=O)c1ccccc1S(=O)(=O)N[C@@H](CCS(C)(=O)=O)C(=O)N1CCC[C@H]1C(=O)N[C@H](C=O)CCCNC(=N)N [2-CMPhSO2 --Met[S(O2)]--Pro--Arg-al]	
		CC1CNc2c(cccc2S(=O)(=O)N[C@@H](CCCNC(=N)N)C(=O)N2CC[C@@H](C)C[C@@H]2C(=O)O)C1 (stereo partly drawn) [Argatroban, 2R,4R-4-methyl-1-[N-2-(3-methyl-1,2,3,4-tetrahydro-8-quinolinesulfonyl)-L-argininal]-2-piperdinecarboxylic acid, reference compound]	ED50 (rat carotid artery; dose that prevents the incidence of complete thrombotic occlusion in 50% of animals tested, FeCl3 model, rat): 3.8 mg/kg
2600 nM	146 nM	CS(=O)(=O)CC[C@H](NS(=O)(=O)NC1CCCCC1)C(=O)N1CCC[C@H]1C(=O)N[C@H](C=O)CCCNC(=N)N [ChxNH--SO2 --Met[S(O2)]--Pro--Arg-al]	
199 nM	1.6 nM	CCCCS(=O)(=O)N[C@@H](CCS(C)(=O)=O)C(=O)N1CCC[C@H]1C(=O)N[C@H](C=O)CCCNC(=N)N [Example 11, N-(1-butanesulfonyl)-L-methioninesulfone-L-proline-L-argininal]	
30 nM	0.66 nM	CS(=O)(=O)CC[C@H](NS(=O)(=O)CC1CCCCC1)C(=O)N1CCC[C@H]1C(=O)N[C@H](C=O)CCCNC(=N)N [Example 18, N-cyclohexylmethanesulfonyl-L-methionine sulfone-L-proline-L-argininal]	
> 25 nM	0.78 nM	CS(=O)(=O)CC[C@H](NS(=O)(=O)c1cccc2ccccc12)C(=O)N1CCC[C@H]1C(=O)N[C@H](C=O)CCCNC(=N)N [Example 21, N-(1-naphthylenesulfonyl)-L-methionine sulfone-L-proline-L-argininal]	
35 nM	0.58 nM	CS(=O)(=O)CC[C@H](NS(=O)(=O)c1ccc2ccccc2c1)C(=O)N1CCC[C@H]1C(=O)N[C@H](C=O)CCCNC(=N)N [Example 24, N-(2-naphthylenesulfonyl)-L-methionine sulfone-L-proline-L-argininal]	Ki (human alpha-thrombin; [2]): 0.135 nM
86 nM	1 nM	CS(=O)(=O)CC[C@H](NS(=O)(=O)Cc1ccccc1)C(=O)N1CCC[C@H]1C(=O)N[C@H](C=O)CCCNC(=N)N [Example 27, N-benzylsulfonyl-L-methionine sulfone-L-proline-L-argininal]	incidence of thrombotic occlusion (in words) (rat carotid artery; FeCl3 model, rat, over all doses of Table 3): reduction in the incidence of thrombotic occlusion; ED50 (rat carotid artery; Rattus norvegicus): 0.7 mg/kg; prolongation of APTT (rat plasma): prolonged the APTT in a dose dependent manner; Ki (human alpha-thrombin; [2]): 1.06 nM; Ki (human alpha-thrombin; Table 4, determined using human alphathrombin (footnote a), read-out: Ki): 1.06 nM; prolongation of APTT (human plasma): prolonged the APTT in a dose dependent manner
500 nM	5.5 nM	CCCC(CCC)C(=O)N[C@@H](CCS(C)(=O)=O)C(=O)N1CCC[C@H]1C(=O)N[C@H](C=O)CCCNC(=N)N [Example 33, N-(2-propylpentanoyl)-L-methionine sulfone-L-proline-L-argininal]	Ki (human alpha-thrombin; [2]): 4 nM
> 250 nM	1.8 nM	CCCCS(=O)(=O)N[C@@H](CS(C)(=O)=O)C(=O)N1CCC[C@H]1C(=O)N[C@H](C=O)CCCNC(=N)N [Example 40, N-(1-butanesulfonyl)-S-methyl-L-cysteine Sulfone-L-proline-L-argininal]	
2800 nM	5.1 nM	CCCC(CCC)C(=O)N[C@@H](CS(C)(=O)=O)C(=O)N1CCC[C@H]1C(=O)N[C@H](C=O)CCCNC(=N)N [Example 43, N-(2-propylpentanoyl)-S-methyl-L-cysteine sulfone-L-proline-L-argininal]	
> 250 nM	1.4 nM	CS(=O)(=O)C[C@H](NS(=O)(=O)c1ccc2ccccc2c1)C(=O)N1CCC[C@H]1C(=O)N[C@H](C=O)CCCNC(=N)N [Example 46, N-(2-naphthalenesulfonyl)-S-methyl-L-cysteine sulfone-L-proline-L-argininal]	
250 nM	3.1 nM	CS(=O)(=O)C[C@H](NS(=O)(=O)c1cccc2ccccc12)C(=O)N1CCC[C@H]1C(=O)N[C@H](C=O)CCCNC(=N)N [Example 49, N-(1-naphthalenesulfonyl)-S-methyl-L-cysteine sulfone-L-proline-L-argininal]	
490 nM	13 nM	N=C(N)NCCC[C@@H](C=O)NC(=O)[C@@H]1CCCN1C(=O)[C@H](CS(=O)(=O)CC(=O)O)NS(=O)(=O)Cc1ccccc1 [Example 56, N-benzylsulfonyl-S-(carboxymethyl)-L-cysteine sulfone-L-proline-L-argininal]	
220 nM	1.6 nM	CCCC(CCC)C(=O)N[C@@H](CS(=O)(=O)CC(=O)O)C(=O)N1CCC[C@H]1C(=O)N[C@H](C=O)CCCNC(=N)N [Example 59, N-(2-propylpentanoyl)-S-(carboxymethyl)-L-cysteine sulfone-L-proline-L-argininal]	
61 nM	0.56 nM	COC(=O)CS(=O)(=O)C[C@H](NS(=O)(=O)c1ccc2ccccc2c1)C(=O)N1CCC[C@H]1C(=O)N[C@H](C=O)CCCNC(=N)N [Example 69, N-(2-naphthylenesulfonyl)-S-(methyl acetate)-L-cysteine sulfone-L-proline-L-argininal]	
250 to 2500 nM	1.7 nM	N=C(N)NCCC[C@@H](C=O)NC(=O)[C@@H]1CCCN1C(=O)[C@H](CS(=O)(=O)Cc1ccc(C(=O)O)cc1)NS(=O)(=O)Cc1ccccc1 [Example 139, N-benzylsulfonamide-L-cysteine-S-sulfone-(p-toluic acid) -L-proline-argininal aldehyde]	
388 nM	0.742 nM	CCCC(CCC)C(=O)N[C@@H](CS(=O)(=O)Cc1ccc(C(=O)O)cc1)C(=O)N1CCC[C@H]1C(=O)N[C@H](C=O)CCCNC(=N)N [Example 144, N-2-propylpentylamide-L-cysteine-S-sulfone (p-toluic acid) -L-proline-arginal aldehyde]	
30 nM	2.6 nM	CC1(C)[C@@H]2CC[C@@]1(CS(=O)(=O)N[C@@H](CCS(C)(=O)=O)C(=O)N1CCC[C@H]1C(=O)N[C@H](C=O)CCCNC(=N)N)C(=O)C2 [d-Camphor--SO2 --Met[S(O2)]--Pro--Arg-al]	
